ChEMBL document CHEMBL1201862, “PubChem BioAssay data set” (2004)
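Briefly, cells in 96-well plates were exposed to five compound concentrations for 48 h, and endpoints were estimated by linear interpolation. Here, GI50 denotes the concentration required for 50% inhibition of growth.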 Calls of active or inactive are those of the source. No stated cut-off is given here; in the data, active = GI50 up to about 1.1 µM and inactive = higher.

What was measured:
Test in all cases: DTP human tumour cell line panel, 48 h
SF-295 = tested on: SF-295
LXFL 529 = tested on: LXFL 529
HOP-62 = tested on: HOP-62
XF498 = tested on: XF498
NCI-H226 = tested on: NCI-H226
SR = tested on: SR
SN12C = tested on: SN12C
HCT-116 = tested on: HCT-116
A498 = tested on: A498
K562 = tested on: K562
SK-OV-3 = tested on: SK-OV-3
UO-31 = tested on: UO-31
IGROV-1 = tested on: IGROV-1
MOLT-4 = tested on: MOLT-4
HOP-92 = tested on: HOP-92
U-251 = tested on: U-251
SK-MEL-2 = tested on: SK-MEL-2
SNB-75 = tested on: SNB-75

Measured: GI50

CN1CN(C2OC(CO)C(O)C2O)c2nc(N)[nH]c(=O)c21 (stereo unspecified)
inactive: SF-295 > 100 µM | LXFL 529 > 100 µM | HOP-62 > 100 µM | XF498 > 100 µM | NCI-H226 > 100 µM | SR > 100 µM | SN12C > 100 µM | HCT-116 > 100 µM | A498 > 100 µM | K562 > 100 µM | SK-OV-3 > 100 µM | UO-31 > 100 µM | IGROV-1 > 100 µM | MOLT-4 > 100 µM | HOP-92 > 100 µM | U-251 > 100 µM | SK-MEL-2 > 100 µM | SNB-75 > 100 µM

O=C(/C(=C\c1ccc(Cl)cc1)c1ccccc1)c1ccccc1
inactive: SF-295 94.4 µM | LXFL 529 55.5 µM | HOP-62 63.2 µM | XF498 37.6 µM | NCI-H226 39.6 µM | SR 40.8 µM | SN12C > 100 µM | HCT-116 29.7 µM | A498 65 µM | K562 54.1 µM | SK-OV-3 > 100 µM | UO-31 65.2 µM | IGROV-1 > 100 µM | MOLT-4 51.3 µM | HOP-92 4.74 µM | U-251 65.5 µM | SK-MEL-2 11.7 µM | SNB-75 88.9 µM
